Measurements from patent publication US20120122820A1, “PRODRUGS AND THE USE THEREOF” (Bayer Schering Pharma Aktiengesellschaft, priority 2007, published 2012).
Values after ≈ are worked out from the molar mass of the structure shown. Where a name gives a salt, the structure may show the parent alone.

Key:
[1] = Determination of the solubility (24 h shaking at room temperature, ultracentrifugation, HPLC); assay type: physicochemical; conditions: saline or isotonic, thermodynamic from solid, 5% strength aqueous dextrose solution
Experimental: The test substance is suspended in water or dilute hydrochloric acid (pH 4) [Examples 1-21] or in 5% strength aqueous dextrose solution [Examples 22-40]. This suspension is shaken at room temperature for 24 h. After ultracentrifugation at 224 000 g for 30 min, the supernatant is diluted with DMSO and analyzed by HPLC. A two-point calibration plot of the test compound in DMSO is used for quantification.
Agilent 1100 with DAD (G1315A), quat. pump (G1311A), autosampler CTC HTS PAL, degasser (G1322A) and column thermostat (G1316A); column: Phenomenex Gemini C18, 5 μm, 50 mm×2 mm; temperature: 40° C.; eluent A: water/phosphoric acid pH 2, eluent B: acetonitrile; flow rate: 0.7 ml/min; gradient: 0-0.5 min 85% A, 15% B; ramp 0.5-3 min 10% A, 90% B; 3-3.5 min 10% A, 90% B; ramp 3.5-4 min 85% A, 15% B; 4-5 min 85% A, 15% B.
Agilent 1100 with DAD (G1315A), quat. pump (G1311A), autosampler CTC HTS PAL, degasser (G1322A) and column thermostat (G1316A); column: VDSoptilab Kromasil 100 C18, 3.5 μm, 60 mm×2.1 mm; temperature: 30° C.; eluent A: water+5 ml of perchloric acid/liter, eluent B: acetonitrile; flow rate: 0.75 ml/min; gradient: 0-0.5 min 98% A, 2% B; ramp 0.5-4.5 min 10% A, 90% B; 4.5-6 min 10% A, 90% B; ramp 6.5-6.7 min 98% A, 2% B; 6.7-7.5 min 98% A, 2% B.

[2] = Stability in buffer at various pH values; assay type: physicochemical
Experimental: 0.3 mg of the test substance is weighed into a 2 ml HPLC vial and 0.5 ml of acetonitrile or acetonitrile/DMSO (9:1) is added. The substance is dissolved by putting the sample vessel in an ultrasonic bath for about 10 seconds. Then 0.5 ml of the respective (buffer) solution is added, and the sample is again treated in the ultrasonic bath.
• pH 4: 1 liter of Millipore water is adjusted to pH 4.0 with 1 N hydrochloric acid; • pH 5: 0.096 mol of citric acid and 0.2 mol of sodium hydroxide ad 1 liter of water; • pH 7.4: 90.0 g of sodium chloride, 13.61 g of potassium dihydrogen phosphate and 83.35 g of 1 N sodium hydroxide solution are made up to 1 liter with water; this solution is then further diluted 1:10 with Millipore water. • pH 8: 0.013 mol of borax and 0.021 mol of hydrochloric acid ad 1 liter of water.
5 μl portions of the sample solution are analyzed by HPLC for their content of unchanged test substance, and of parent substance (A) produced, every hour over a period of 24 hours at 37° C. The percentage areas of the appropriate peaks are used for quantification.
HPLC method for Examples 1-21:
Agilent 1100 with DAD (G1314A), binary pump (G1312A), autosampler (G1329A), column oven (G1316A), thermostat (G1330A); column: Kromasil 100 C18, 60 mm×2.1 mm, 3.5 μm; column temperature: 30° C.; eluent A: water+5 ml of perchloric acid/liter, eluent B: acetonitrile; gradient: 0-1.0 min 98% A, 2% B; 1.0-9.0 min 2% A, 98% B; 9.0-13.0 min 2% A, 98% B; 13.0-13.5 min 98% A, 2% B; 13.5-15.0 min 98% A, 2% B; flow rate: 0.75 ml/min; UV detection: 210 nm.
HPLC method for Examples 22-40:
The ratios of the peak areas (F) at the respective time points in relation to the peak areas at the starting time are shown in Table 3 for representative exemplary embodiments: […]

solubility at 24 h [1] [mg/mL] | % test substance after 4 h [F(t = 4 h) × 100/F(t = 0 h)] ([2]; pH 4, 37° C.) [%] | % test substance after 24 h [F(t = 24 h) × 100/F(t = 0 h)] ([2]; pH 4, 37° C.) [%] | % test substance after 4 h [F(t = 4 h) × 100/F(t = 0 h)] ([2]; pH 7.4, 37° C.) [%] | % test substance after 24 h [F(t = 24 h) × 100/F(t = 0 h)] ([2]; pH 7.4, 37° C.) [%] | % test substance after 4 h [F(t = 4 h) × 100/F(t = 0 h)] ([2]; pH 5, 37° C.) [%] | % test substance after 24 h [F(t = 24 h) × 100/F(t = 0 h)] ([2]; pH 5, 37° C.) [%] | Compound
0.16 (≈ 218 µM) | 100 | 100 | 97 | 84 |  |  | CC(C)[C@H](N)C(=O)OCCOc1ccc(-c2c(C#N)c(NC(=O)CCCN(C)C)nc(SCc3csc(-c4ccc(Cl)cc4)n3)c2C#N)cc1 [Example 37, 2-{4-[2-({[2-(4-Chlorophenyl)-1,3-thiazol-4-yl]methyl}thio)-3,5-dicyano-6-{[4-(dimethylamino)-butanoyl]amino}pyridin-4-yl]phenoxy}ethyl L-valinate bistrifluoracetate]
> 0.5 | 100 | 100 | 100 | 94 |  |  | N#Cc1c(N)nc(SCc2csc(-c3ccc(Cl)cc3)n2)c(C#N)c1-c1ccc(OCCOC(=O)[C@@H](N)CCCNC(=N)N)cc1 [Example 38, 2-{4-[2-Amino-6-({[2-(4-chlorophenyl)-1,3-thiazol-4-yl]methyl}sulfanyl)-3,5-dicyanopyridin-4-yl]-phenoxy}ethyl L-argininate trihydrochloride]
> 0.5 | 100 | 100 | 0 | 0 |  |  | N#Cc1c(N)nc(SCc2csc(-c3ccc(Cl)cc3)n2)c(C#N)c1-c1ccc(OCCOC(=O)[C@H](N)CCCN)cc1 [Example 39, 2-{4-[2-Amino-6-({[2-(4-chlorophenyl)-1,3-thiazol-4-yl]methyl}sulfanyl)-3,5-dicyanopyridin-4-yl]-phenoxy}ethyl D-ornithinate dihydrochloride]
> 0.5 | 100 | 99 |  |  | 96 | 74 | N#Cc1c(N)nc(SCc2csc(-c3ccc(Cl)cc3)n2)c(C#N)c1-c1ccc(OCCOC(=O)[C@@H](N)CCN)cc1 [Example 24, 2-{4-[2-Amino-6-({[2-(4-chlorophenyl)-1,3-thiazol-4-yl]methyl}thio)-3,5-dicyanopyridin-4-yl]-phenoxy}ethyl (2S)-2,4-diaminobutanoate dihydrochloride]
> 0.5 | 99 | 94 | 90 | 53 |  |  | N#Cc1c(N)nc(SCc2csc(-c3ccc(Cl)cc3)n2)c(C#N)c1-c1ccc(OCCOC(=O)[C@@H](N)CN)cc1 [Example 40, 2-{4-[2-Amino-6-({[2-(4-chlorophenyl)-1,3-thiazol-4-yl]methyl}sulfanyl)-3,5-dicyanopyridin-4-yl]-phenoxy}ethyl-3-amino L-alaninate dihydrochloride]
